Laboratory results from patent publication US8193189B2, “Quinoxaline derivatives as tyrosine kinase activity inhibitors” (Novartis AG, priority 2007, dated 2012).

Experiments:
GST-JAK2(808-1132) = biological target: T1, GST-JAK2(808-1132) (Homo sapiens, UniProt O60674); assay: EPK JAK-family kinases profiling assay (Caliper mobility shift), JAK2; format: biochemical; details: ATP 20 μM, 1.8 nM kinase
T1 construct: GST-JAK2(808-1132); purchased Invitrogen (Carlsbad, USA) #4288
In short: (§1)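 Turnover was read as substrate/product ratio after mobility-shift capillary-like separation of each reaction, run for 60 min at 30 °C with GST-tagged kinase domain, labelled peptide and ATP, and terminated with EDTA stop buffer.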

GST-JAK3(811-1124) = biological target: T2, GST-JAK3(811-1124) (Homo sapiens, UniProt P52333); assay: EPK JAK-family kinases profiling assay (Caliper mobility shift), JAK3; format: biochemical; details: ATP 80 μM, 6 nM kinase
T2 construct: GST-JAK3(811-1124); made in house
T2 sequence (P52333 811-1124): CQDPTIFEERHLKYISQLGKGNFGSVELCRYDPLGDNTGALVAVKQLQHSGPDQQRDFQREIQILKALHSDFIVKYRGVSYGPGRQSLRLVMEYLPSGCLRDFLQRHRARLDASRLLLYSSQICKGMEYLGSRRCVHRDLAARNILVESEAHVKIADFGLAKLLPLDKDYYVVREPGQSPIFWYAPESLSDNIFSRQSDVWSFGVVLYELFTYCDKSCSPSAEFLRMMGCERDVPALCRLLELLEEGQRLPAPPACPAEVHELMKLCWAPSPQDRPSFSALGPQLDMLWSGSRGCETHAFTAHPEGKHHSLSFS
In short: as §1

[1] = system: JAK/STAT pathway (JAK1/JAK2-dependent nuclear translocation of STAT1-GFP); assay: Inhibition of the JAK/STAT pathway: IFN-γ stimulated nuclear translocation of STAT1-GFP in HT1080 fibrosarcoma cells; format: cell-based; details: Homo sapiens, HT-1080; HT1080 STAT1-GFP cells, 100 ng/ml IFN-γ 2 hours, compound added 30 min before; read-out: STAT1translo IC50
In short: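 HT1080 cells stably expressing STAT1-GFP, compounds added 30 min before IFN-γ stimulation at final 10 μM down to 0.003 μM (0.1% DMSO). Nuclear-cytoplasmic GFP intensity differential quantified by automated imaging with Hoechst nuclear mask, ≥1000 cells per well, averaged per well.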

GST-JAK1(866-1154) = biological target: T3, GST-JAK1(866-1154) (Homo sapiens, UniProt P23458); assay: EPK JAK-family kinases profiling assay (Caliper mobility shift), JAK1; format: biochemical; details: ATP 40 μM, 50 nM kinase
T3 construct: GST-JAK1(866-1154); made in house
T3 sequence (P23458 866-1154): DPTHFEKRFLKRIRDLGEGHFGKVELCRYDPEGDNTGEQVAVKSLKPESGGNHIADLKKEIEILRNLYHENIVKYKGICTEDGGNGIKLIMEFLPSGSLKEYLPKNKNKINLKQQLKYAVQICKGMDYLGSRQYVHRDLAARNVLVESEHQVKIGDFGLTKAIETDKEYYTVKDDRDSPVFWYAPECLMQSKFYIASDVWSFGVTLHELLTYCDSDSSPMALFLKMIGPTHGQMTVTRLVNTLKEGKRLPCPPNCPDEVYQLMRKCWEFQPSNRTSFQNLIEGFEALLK
In short: as §1

GST-TYK2(888-1187) = biological target: T4, GST-TYK2(888-1187) (Homo sapiens, UniProt P29597); assay: EPK JAK-family kinases profiling assay (Caliper mobility shift), TYK2; format: biochemical; details: ATP 30 μM, 40 nM kinase
T4 construct: GST-TYK2(888-1187); made in house
T4 sequence (P29597 888-1187): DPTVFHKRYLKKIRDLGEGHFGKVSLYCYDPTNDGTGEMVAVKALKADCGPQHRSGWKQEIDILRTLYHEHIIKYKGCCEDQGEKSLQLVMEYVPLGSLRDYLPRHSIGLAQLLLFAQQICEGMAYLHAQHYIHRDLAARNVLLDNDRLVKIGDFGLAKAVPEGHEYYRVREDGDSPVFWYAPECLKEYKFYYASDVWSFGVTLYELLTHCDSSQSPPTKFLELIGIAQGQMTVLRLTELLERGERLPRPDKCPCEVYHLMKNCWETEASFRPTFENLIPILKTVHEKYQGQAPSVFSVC
In short: as §1

T1 sequence (O60674 808-1132): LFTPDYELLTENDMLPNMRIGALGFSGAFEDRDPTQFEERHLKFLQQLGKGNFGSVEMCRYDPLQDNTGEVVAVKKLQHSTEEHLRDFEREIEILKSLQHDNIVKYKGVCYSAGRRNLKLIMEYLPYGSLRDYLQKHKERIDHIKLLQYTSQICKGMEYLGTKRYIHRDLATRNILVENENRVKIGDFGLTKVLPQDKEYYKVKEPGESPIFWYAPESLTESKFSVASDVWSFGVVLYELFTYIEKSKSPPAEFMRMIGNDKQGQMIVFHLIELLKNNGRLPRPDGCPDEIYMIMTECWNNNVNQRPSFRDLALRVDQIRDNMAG

Compound | IC50 (GST-JAK2(808-1132)) [nM] | IC50 (GST-JAK3(811-1124)) [nM] | IC50 [1] [nM] | IC50 (GST-JAK1(866-1154)) [nM] | IC50 (GST-TYK2(888-1187)) [nM]
O=C(c1c(F)cc(-c2cccc3ncc(-c4cnn(C5CCNCC5)c4)nc23)cc1F)N1CCOCC1 [Example 97, {2,6-Difluoro-4-[3-(1-piperidin-4-yl-1H-pyrazol-4-yl)-quinoxalin-5-yl]-phenyl}-morpholin-4-yl-methanone] | 19.5 | 9150 | 495 | 720 | 510
CS(=O)(=O)c1ccc(-c2cccc3ncc(-c4cnn(C5CCNCC5)c4)nc23)cc1F [Example 99, 8-(3-Fluoro-4-methanesulfonyl-phenyl)-2-(1-piperidin-4-yl-1H-pyrazol-4-yl)-quinoxaline] | 22 | 4850 | 1360 | 870 | 805
Cc1cc(-c2cnc3cccc(-c4cc(F)c(CN5CCS(=O)(=O)CC5)c(F)c4)c3n2)ccc1C(=O)N1CCC(N(C)C)CC1 [Example 102, (4-Dimethylamino-piperidin-1-yl)-(4-{8-[4-(1,1-dioxido-thiomorpholin-4-ylmethyl)-3,5-difluoro-phenyl]-quinoxalin-2-yl}-2-methyl-phenyl)-methanone] | 74 | 5330 | 31.5 | 1220 | 2730
CCN1CCN(c2ccc(-c3cnc4cccc(-c5cc(F)c(CN6CCOCC6)c(F)c5)c4n3)cc2C)CC1 [Example 103, 8-(3,5-Difluoro-4-morpholin-4-ylmethyl-phenyl)-2-[4-(4-ethyl-piperazin-1-yl)-3-methyl-phenyl]-quinoxaline] | 30.5 | 3600 | 824 | 1150 | 1200
COc1cc(-c2cnc3cccc(-c4cc(F)c(CN5CCOCC5)c(F)c4)c3n2)ccc1N1CCN(C)CC1 [Example 104, 8-(3,5-Difluoro-4-morpholin-4-ylmethyl-phenyl)-2-[3-methoxy-4-(4-methyl-piperazin-1-yl)-phenyl]-quinoxaline] | < 3 | 390 | 420 | 52 | 130
COc1cc(-c2cnc3cccc(-c4ccc(C(=O)N5CCOCC5)c(C)c4)c3n2)ccc1N1CCN(C)CC1 [Example 105, (4-{3-[3-Methoxy-4-(4-methyl-piperazin-1-yl)-phenyl]-quinoxalin-5-yl}-2-methyl-phenyl)-morpholin-4-yl-methanone] | 32 | 1800 | 895 | 810 | 985
COc1cc(-c2cnc3cccc(-c4cc(F)c(CN5CCS(=O)(=O)CC5)c(F)c4)c3n2)ccn1 [Example 106, 8-[4-(1,1-Dioxido-thiomorpholin-4-ylmethyl)-3,5-difluoro-phenyl]-2-(2-methoxy-pyridin-4-yl)-quinoxaline] | 82 | 195 | 202 | 365 | 1970
CN1CCN(c2ccc(-c3cnc4cccc(-c5cc(F)c(CN6CCOCC6)c(F)c5)c4n3)cn2)CC1 [Example 107, 8-(3,5-Difluoro-4-morpholin-4-ylmethyl-phenyl)-2-[6-(4-methyl-piperazin-1-yl)-pyridin-3-yl]-quinoxaline] | 95.5 | 9800 | 2470 | 1350 | 2950
CN1CCN(c2ccc(-c3cnc4cccc(-c5cc(F)c(CN6CCS(=O)(=O)CC6)c(F)c5)c4n3)cn2)CC1 [Example 108, 8-[4-(1,1-Dioxido-thiomorpholin-4-ylmethyl)-3,5-difluoro-phenyl]-2-[6-(4-methyl-piperazin-1-yl)-pyridin-3-yl]-quinoxaline] | 24.5 | 2400 | 150 | 254 | 417
CN(C)CCN(C)C(=O)c1ccc(-c2cnc3cccc(-c4cc(F)c(CN5CCOCC5)c(F)c4)c3n2)cn1 [Example 110, 5-[8-(3,5-Difluoro-4-morpholin-4-ylmethyl-phenyl)-quinoxalin-2-yl]-pyridine-2-carboxylic acid (2-dimethylamino-ethyl)-methyl-amide] | 575 | > 10000 | 1590 | 5550 | 9300
CN(C)CCN(C)C(=O)c1ccc(-c2cnc3cccc(-c4cc(F)c(CN5CCS(=O)(=O)CC5)c(F)c4)c3n2)cn1 [Example 111, 5-{8-[4-(1,1-Dioxido-thiomorpholin-4-ylmethyl)-3,5-difluoro-phenyl]-quinoxalin-2-yl}-pyridine-2-carboxylic acid (2-dimethylamino-ethyl)-methyl-amide] | 105 | 9300 | 1230 | 920 | 1700

More lines, now with the values ahead:

IC50 (GST-JAK2(808-1132)) [nM] | IC50 (GST-JAK3(811-1124)) [nM] | IC50 [1] [nM] | IC50 (GST-JAK1(866-1154)) [nM] | IC50 (GST-TYK2(888-1187)) [nM] | Compound
320 | > 10000 | 13600 | 5350 | > 10000 | Cc1cc(-c2cnc3cccc(-c4cc(F)c(CN5CCOCC5)c(F)c4)c3n2)cnc1C(=O)N(C)CCN(C)C [Example 112, 5-[8-(3,5-Difluoro-4-morpholin-4-ylmethyl-phenyl)-quinoxalin-2-yl]-3-methyl-pyridine-2-carboxylic acid (2-dimethylamino-ethyl)-methyl-amide]
28.5 | 3300 | 1940 | 615 | 1150 | Cc1cc(-c2cnc3cccc(-c4cc(F)c(CN5CCS(=O)(=O)CC5)c(F)c4)c3n2)cnc1C(=O)N(C)CCN(C)C [Example 113, 5-{8-[4-(1,1-Dioxido-thiomorpholin-4-ylmethyl)-3,5-difluoro-phenyl]-quinoxalin-2-yl}-3-methyl-pyridine-2-carboxylic acid (2-dimethylamino-ethyl)-methyl-amide]
11.5 | 1650 | 6380 | 250 | 345 | Cc1cc(-c2cccc3ncc(-c4cnn(CCCN5CCOCC5)c4)nc23)ccc1C(=O)N1CCOCC1 [Example 114, (2-Methyl-4-{3-[1-(3-morpholin-4-yl-propyl)-1H-pyrazol-4-yl]-quinoxalin-5-yl}-phenyl)-morpholin-4-yl-methanone]
9.3 | 1600 | 1440 | 72.5 | 480 | COCCn1cc(-c2cnc3cccc(-c4cc(F)c(CN5CCOCC5)c(F)c4)c3n2)cn1 [Example 115, 8-(3,5-Difluoro-4-morpholin-4-ylmethyl-phenyl)-2-[1-(2-methoxy-ethyl)-1H-pyrazol-4-yl]-quinoxaline]
< 3 | 1040 | 60 | 76.5 | 125 | Fc1cc(-c2cccc3ncc(-c4cnn(C5CCOCC5)c4)nc23)cc(F)c1CN1CCOCC1 [Example 117, 8-(3,5-Difluoro-4-morpholin-4-ylmethyl-phenyl)-2-[1-(tetrahydro-pyran-4-yl)-1H-pyrazol-4-yl]-quinoxaline]
25 | > 10000 | 360 | 470 | 955 | O=C1CN(Cc2c(F)cc(-c3cccc4ncc(-c5cnn(C6CCOCC6)c5)nc34)cc2F)CCN1 [Example 118, 4-(2,6-Difluoro-4-{3-[1-(tetrahydro-pyran-4-yl)-1H-pyrazol-4-yl]-quinoxalin-5-yl}-benzyl)-piperazin-2-one]
9.85 | 6400 | 340 | 250 | 280 | O=C(c1c(F)cc(-c2cccc3ncc(-c4cnn(C5CCOCC5)c4)nc23)cc1F)N1CCOCC1 [Example 119, (2,6-Difluoro-4-{3-[1-(tetrahydro-pyran-4-yl)-1H-pyrazol-4-yl]-quinoxalin-5-yl}-phenyl)-morpholin-4-yl-methanone]
5 | 1950 | 180 | 135 | 170 | COCCN1CCC(n2cc(-c3cnc4cccc(-c5cc(F)c(CN6CCOCC6)c(F)c5)c4n3)cn2)CC1 [Example 123, 8-(3,5-Difluoro-4-morpholin-4-ylmethyl-phenyl)-2-{1-[1-(2-methoxy-ethyl)-piperidin-4-yl]-1H-pyrazol-4-yl}-quinoxaline]
